{"source": "patent US11702426B2", "about": "“Macrocyclic deaza-purinones for the treatment of viral infections” (JANSSEN SCIENCES IRELAND UNLIMITED COMPANY, priority 2013, dated 2023)", "key": {"human TLR7": {"biological_target": "T1, human TLR7 (Homo sapiens, UniProt Q9NYK1)", "T1 construct": "expressed in transfected cells; host or cells: HEK293", "T1 sequence (Q9NYK1 27-1049)": "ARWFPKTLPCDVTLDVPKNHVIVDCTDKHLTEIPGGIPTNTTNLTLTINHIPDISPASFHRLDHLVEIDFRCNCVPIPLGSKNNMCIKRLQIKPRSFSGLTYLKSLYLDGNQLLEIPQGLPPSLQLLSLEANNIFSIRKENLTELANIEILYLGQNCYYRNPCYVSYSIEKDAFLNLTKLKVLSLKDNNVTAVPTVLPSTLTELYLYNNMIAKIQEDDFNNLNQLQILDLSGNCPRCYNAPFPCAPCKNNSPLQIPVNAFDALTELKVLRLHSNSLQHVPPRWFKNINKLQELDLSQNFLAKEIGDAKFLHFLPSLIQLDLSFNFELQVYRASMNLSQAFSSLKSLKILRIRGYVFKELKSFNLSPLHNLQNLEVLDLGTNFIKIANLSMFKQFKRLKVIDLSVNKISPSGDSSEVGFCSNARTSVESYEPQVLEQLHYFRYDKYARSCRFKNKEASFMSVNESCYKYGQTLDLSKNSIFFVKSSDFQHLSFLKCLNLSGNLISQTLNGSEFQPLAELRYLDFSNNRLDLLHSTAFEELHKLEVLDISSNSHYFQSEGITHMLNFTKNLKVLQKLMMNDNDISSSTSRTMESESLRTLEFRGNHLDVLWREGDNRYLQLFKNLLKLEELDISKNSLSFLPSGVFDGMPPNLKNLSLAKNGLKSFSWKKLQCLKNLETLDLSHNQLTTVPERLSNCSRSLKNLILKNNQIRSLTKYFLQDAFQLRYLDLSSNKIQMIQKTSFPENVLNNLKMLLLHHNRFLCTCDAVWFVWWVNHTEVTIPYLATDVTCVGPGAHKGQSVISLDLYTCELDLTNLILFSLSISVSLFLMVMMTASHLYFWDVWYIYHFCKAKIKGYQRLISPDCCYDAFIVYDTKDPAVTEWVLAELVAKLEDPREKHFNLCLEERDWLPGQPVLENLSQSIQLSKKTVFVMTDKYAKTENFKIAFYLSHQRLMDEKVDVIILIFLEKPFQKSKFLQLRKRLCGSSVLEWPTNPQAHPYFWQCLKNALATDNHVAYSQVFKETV", "assay": "HEK293 TLR7-NFκB-luc cellular reporter assay", "format": "cell-based", "conditions": "lowest effective concentration; HEK293 transiently transfected with TLR7 and NFκB-luc; 6 hours incubation", "experimental": "(§1) The ability of compounds to activate human TLR7 and TLR8 was assessed in a cellular reporter assay using HEK293 cells transiently transfected with a TLR7 or TLR8 expression vector and NFκB-luc reporter construct. Briefly, HEK293 cells were grown in culture medium (DMEM supplemented with 10% FCS and 2 mM Glutamine). For transfection of cells in 15 cm dishes, cells were detached with Trypsin-EDTA, transfected with a mix of CMV-TLR7 or TLR8 plasmid (1,700 ng), NFκB-luc plasmid (850 ng) and a transfection reagent and incubated 48 hours at 37° C. in a humidified 5% CO2 atmosphere. Transfected cells were then washed in PBS, detached with Trypsin-EDTA, and resuspended in medium to a density of 1.25×10^5 cells/mL. Forty microliters of cells were then dispensed into each well in 384-well plates, where 200 nL of compound in 100% DMSO was already present. Following 6 hours incubation at 37° C., 5% CO2, the luciferase activity was determined by adding 15 μl of Steady Lite Plus substrate (Perkin Elmer) to each well and readout performed on a ViewLux ultraHTS microplate imager (Perkin Elmer). Dose response curves were generated from measurements performed in quadruplicates. Lowest effective concentrations (LEC) values, defined as the concentration that induces an effect which is at least two fold above the standard deviation of the assay, were determined for each compound."}, "human TLR8": {"biological_target": "T2, human TLR8 (Homo sapiens, UniProt Q9NR97)", "T2 construct": "expressed in transfected cells; host or cells: HEK293", "T2 sequence (Q9NR97 27-1041)": "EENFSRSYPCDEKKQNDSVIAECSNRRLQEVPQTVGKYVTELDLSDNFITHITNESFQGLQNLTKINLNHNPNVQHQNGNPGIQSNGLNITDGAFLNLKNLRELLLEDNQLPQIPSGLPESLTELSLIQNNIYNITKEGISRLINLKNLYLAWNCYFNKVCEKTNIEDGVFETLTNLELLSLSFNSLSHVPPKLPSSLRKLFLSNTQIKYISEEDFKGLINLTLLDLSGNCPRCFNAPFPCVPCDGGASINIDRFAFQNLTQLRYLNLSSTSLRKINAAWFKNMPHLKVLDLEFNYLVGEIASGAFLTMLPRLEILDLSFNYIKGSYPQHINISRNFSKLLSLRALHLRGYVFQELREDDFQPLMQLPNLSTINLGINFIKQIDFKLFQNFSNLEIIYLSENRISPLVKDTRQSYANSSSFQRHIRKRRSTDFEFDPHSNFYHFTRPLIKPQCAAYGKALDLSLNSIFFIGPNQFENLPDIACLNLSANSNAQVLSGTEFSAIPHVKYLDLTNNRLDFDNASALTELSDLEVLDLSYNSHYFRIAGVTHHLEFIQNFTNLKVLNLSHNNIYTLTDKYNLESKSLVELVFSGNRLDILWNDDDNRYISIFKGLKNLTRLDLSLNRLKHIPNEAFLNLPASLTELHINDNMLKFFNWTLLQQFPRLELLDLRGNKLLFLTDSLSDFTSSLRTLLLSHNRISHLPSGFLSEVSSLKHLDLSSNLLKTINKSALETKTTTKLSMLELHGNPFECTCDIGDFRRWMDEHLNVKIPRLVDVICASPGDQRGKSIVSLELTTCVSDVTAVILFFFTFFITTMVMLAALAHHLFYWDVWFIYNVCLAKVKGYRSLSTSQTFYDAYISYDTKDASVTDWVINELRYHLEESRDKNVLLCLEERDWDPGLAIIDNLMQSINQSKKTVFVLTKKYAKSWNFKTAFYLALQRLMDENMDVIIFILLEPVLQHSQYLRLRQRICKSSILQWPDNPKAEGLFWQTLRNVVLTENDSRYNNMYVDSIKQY", "assay": "HEK293 TLR8-NFκB-luc cellular reporter assay", "format": "cell-based", "conditions": "lowest effective concentration; greater than the highest tested concentration", "experimental": "as §1"}, "[1]": {"test_system": "interferon production in human PBMC", "assay": "Interferon production in human PBMC, read out on HEK-ISRE-luc reporter cells", "format": "cell-based", "conditions": "Homo sapiens, PBMC, 24 h, lowest effective concentration, PBMC incubated overnight with compound, supernatant transferred to HEK-ISRE-luc cells, read-out: PBMC HEK-ISRE-luc (LEC; μM)", "experimental": "Activation of human TLR7 results in robust production of interferon by plasmacytoid dendritic cells present in human blood. The potential of compounds to induce interferon was evaluated by determination of interferon in the conditioned media from peripheral blood mononuclear cells (PBMC). The presence of interferon in the samples was determined, using an interferon reporter cell line stably expressing an interferon-stimulated responsive elements (ISRE)-luc reporter construct. The ISRE element with sequence TAGTTTCACTTTCCC (SEQ ID NO: 1) is highly responsive to the STAT1-STAT2-IRF9 transcription factor, which becomes activated upon binding of IFN-I to the IFN receptor. Briefly, PBMCs were prepared from buffy coats of at least two donors using a standard Ficoll centrifugation protocol. Isolated PBMCs were resuspended in RPMI medium supplemented with 10% human AB serum and 2×10^5 cells/well were dispensed into 384-well plates containing compounds (70 μL total volume). After overnight incubation of the PBMCs with the compounds, 10 μL of supernatant was transferred to 384-well plates containing 5×10^3 HEK-ISRE-luc cells/well in 30 μL (plated the day before). Following 24 hours of incubation, activation of the ISRE elements was measured by assaying luciferase activity using 40 μL/well Steady Lite Plus substrate (Perkin Elmer) and measured with ViewLux ultraHTS microplate imager (Perkin Elmer). The stimulating activity of each compound on the HEK-ISRE-luc cells was reported as LEC. The LEC in turn indicates the degree of ISRE activation on transfer of a defined amount of PBMC culture medium. Recombinant interferon alfa-2a (Roferon-A) was used as a standard control compound."}, "HEK293 NFκB-luc": {"test_system": "HEK293 NFκB-luc", "assay": "Counterscreen: HEK293 cells transfected with NFκB-luc reporter construct alone", "format": "cell-based", "conditions": "lowest effective concentration; greater than the highest tested concentration", "experimental": "In parallel, a similar dilution series of compound was used (200 nL of compound in 100% DMSO) with 40 μL per well of cells transfected with NFκB-luc reporter construct alone (1.25×10^5 cells/mL). Six hours after incubation at 37° C., 5% CO2, the luciferase activity was determined by adding 15 μl of Steady Lite Plus substrate (Perkin Elmer) to each well and readout performed on a ViewLux ultraHTS microplate imager (Perkin Elmer). Counterscreen data is reported as LEC."}, "[2]": {"conditions": "rcm bond"}}, "note": "Read-outs that look alike come from different tables or passages of the source.", "data": [{"compound": "Nc1nc2cc3c1nc(O)n3Cc1cccc(c1)CCCCCO2", "note": "[Compound 4]", "values": [{"measurement": "HEK293 TLR7-NFκB-luc (LEC; μM)", "setting": "human TLR7", "result": 2.38, "unit": "µM"}, {"measurement": "LEC on HEK293 TLR8-NFκB-luc", "setting": "human TLR8", "result": "> 10", "unit": "µM"}, {"measurement": "minimal effective concentration", "setting": "[1]", "result": 2.56, "unit": "µM"}, {"measurement": "LEC on HEK293 NFκB-luc (counterscreen)", "setting": "HEK293 NFκB-luc", "result": "> 10", "unit": "µM"}]}, {"compound": "CCOC(=O)N1CCc2ccc(OC)c(c2)OCC=CCOc2cc1c([N+](=O)[O-])c(N)n2", "values": [{"measurement": "ring closure, yield of all isomers", "setting": "[2]; from C=CCOc1cc(N(CCc2ccc(OC)c(OCC=C)c2)C(=O)OCC)c([N+](=O)[O-])c(N)n1, Grubbs-Hoveyda catalyst 2nd generation (with chlorodicyclohexylborane), 1,2-dichloroethane, 4.24 mM, 120.0 °C, 23.0 h", "result": 25, "unit": "%"}]}, {"compound": "CCOC(=O)N1Cc2cccc(c2)N(C(=O)OC(C)(C)C)CC=CCCOc2cc1c([N+](=O)[O-])c(N)n2", "values": [{"measurement": "ring closure, yield of all isomers", "setting": "[2]; from C=CCCOc1cc(N(Cc2cccc(N(CC=C)C(=O)OC(C)(C)C)c2)C(=O)OCC)c([N+](=O)[O-])c(N)n1, Grubbs catalyst 2nd generation, dichloromethane, 6.93 mM, 25.0 °C, 24.0 h", "result": 67, "unit": "%"}]}, {"compound": "CCOC(=O)N1Cc2ncccc2OCC=CCCOc2cc1c([N+](=O)[O-])c(N)n2", "values": [{"measurement": "ring closure, yield of all isomers", "setting": "[2]; from C=CCCOc1cc(N(Cc2ncccc2OCC=C)C(=O)OCC)c([N+](=O)[O-])c(N)n1, Hoveyda-Grubbs 2nd generation (with chlorodicyclohexylborane), 1,2-dichloroethane, 3.6 mM, 120.0 °C, 3.0 h", "result": 22, "unit": "%"}]}, {"compound": "CCOC(=O)N1Cc2cccc(c2)OCCC=CCOc2cc1c([N+](=O)[O-])c(N)n2", "values": [{"measurement": "ring closure, yield of all isomers", "setting": "[2]; from C=CCCOc1cccc(CN(C(=O)OCC)c2cc(OCC=C)nc(N)c2[N+](=O)[O-])c1, Grubbs-Hoveyda catalyst 2nd generation (with chlorodicyclohexylborane), 1,2-dichloroethane, 4.18 mM, 120.0 °C, 32.0 h", "result": 36, "unit": "%"}]}, {"compound": "CCOC(=O)N1Cc2cccc(c2)OCC=CCOc2cc1c([N+](=O)[O-])c(N)n2", "values": [{"measurement": "ring closure, yield of all isomers", "setting": "[2]; from C=CCOc1cccc(CN(C(=O)OCC)c2cc(OCC=C)nc(N)c2[N+](=O)[O-])c1, Hoveyda-Grubbs 2nd generation (with chlorodicyclohexylborane), 1,2-dichloroethane, 3.47 mM, 120.0 °C, 37.0 h", "result": 19, "unit": "%"}]}, {"compound": "CCOC(=O)N1Cc2cccc(c2)OCC=CCCOc2cc1c([N+](=O)[O-])c(N)n2", "values": [{"measurement": "ring closure, yield of all isomers", "setting": "[2]; from C=CCCOc1cc(N(Cc2cccc(OCC=C)c2)C(=O)OCC)c([N+](=O)[O-])c(N)n1, Grubbs 2nd generation, CH2Cl2, 5.22 mM, 25.0 °C, 20.0 h", "result": 15, "unit": "%"}]}, {"compound": "CCOC(=O)N1Cc2cccc(c2)CC=CCCOc2cc1c([N+](=O)[O-])c(N)n2", "values": [{"measurement": "ring closure, yield of all isomers", "setting": "[2]; from C=CCCOc1cc(N(Cc2cccc(CC=C)c2)C(=O)OCC)c([N+](=O)[O-])c(N)n1, Grubbs 2nd generation, CH2Cl2, 3.38 mM, 25.0 °C, 72.0 h", "result": 33, "unit": "%"}]}]}
